The results in this text go back to US20030109570A1 (priority 2002, published 2003).

One test concerns the target T1, human PPARα receptor (Homo sapiens, UniProt Q07869).
T1 construct: and; expressed in transfected cells; host or cells: CV-1 cells, pSG5-based Gal4-PPAR expression vector
T1 sequence (Q07869 167-468): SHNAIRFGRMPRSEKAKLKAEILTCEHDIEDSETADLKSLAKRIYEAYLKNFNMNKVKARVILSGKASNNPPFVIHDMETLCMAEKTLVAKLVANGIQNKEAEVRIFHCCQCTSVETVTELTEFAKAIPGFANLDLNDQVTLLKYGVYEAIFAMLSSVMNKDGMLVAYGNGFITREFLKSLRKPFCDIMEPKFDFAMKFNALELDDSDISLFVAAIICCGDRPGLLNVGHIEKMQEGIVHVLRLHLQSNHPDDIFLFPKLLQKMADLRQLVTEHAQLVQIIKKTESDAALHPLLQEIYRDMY
The test is described as follows: Luciferase assay using human PPARα receptor (Gal4 chimera, CV-1 cells). Format: cell-based. The conditions noted are these: 24 h, luciferase activity of Wy-14.643 at 10 μM = 100, read-out: PPARα agonist activity, Relative activity. As for the experimental part: (§1) 1) Materials for a Luciferase Assay Using Human PPARα and γ
(§2) The entire procedure was conducted using a usual yeast one- or two-hybrid system according to a basic genetic engineering process.
(§3) pGL2-UAS5-TK-luc was prepared as a reporter plasmid having a response sequence of the Gal4 protein as an yeast basic transcription factor and a luciferase gene (luc) under the control by an enhancer sequence with five times repeats of UAS and the thymidine kinase (TK) promoter promoter.
(§4) A vector expressing a chimera receptor in which a ligand binding region in an intranuclear receptor human PPARα or γ receptor was fused to the […] terminus in the DNA binding region of the yeast Gal4 protein was prepared as follows. Specifically, using pSG5 (trade name, STRATAGENE, Catalogue No.216201) as a basic expression vector, the structural gene was replaced with that of a chimera receptor.
(§5) A DNA encoding the ligand binding region in human PPARα or γ receptor was inserted downstream of the DNA binding region in the Gal4 protein, i.e., the DNA encoding the 1st to 147th amino acid sequence such that the frames were aligned and it was inserted downstream of the promoter-enhancer region in pSG5 (trade name). For localizing the expressed chimera receptor in the nucleus, the DNA sequence was constructed such that a nuclear transition signal derived from SV-40T antigen, Ala Pro Lys Lys Lys Arg Lys Val Gly (SEQ ID NO. 4) was present at the amino terminus of the ligand binding region in the human PPARα or γ receptor.
(§6) As the structural gene segment for a ligand binding region in the human PPARα or γ receptor, a DNA was used which encoded:
human PPARα ligand binding region: Ser^167-Tyr^468; and
(§7) 2) Luciferase Assay Using the Human PPARα or γ Receptor
(§8) CV-1 cells used as a host cell were cultured as usual. Specifically, a fetal calf serum (Intergen, Catalogue No.1020-90) was added to the Dulbecco modified eagle medium (DMEM) to the final concentration of 10%, and penicillin G and streptomycin sulfate were then added to the final concentrations of 50 U/mL and 50 μg/mL, respectively. In the medium, the cells were cultured at 37° C. under 5% carbon dioxide.
(§9) The day before transfection, the cells were inoculated in a 24 well plate at 1.5×10^5 cells/well in advance. LipofectAMINE (trade name, GIBCOBRL, Catalogue No.26300-61) was used for transfection. Specifically, for each well, in 40 μL of a serum-free medium Opti-MEM (trade name, GIBCOBRL, Catalogue No.31985-070) were well mixed 100 ng of a reporter plasmid, 12.5 ng of Gal4-PPAR expression vector, 200 ng of pRL-TK (trade name) as an internal control, 287.5 ng of pGEM-3Zf(+) (trade name, PROMEGA, Catalogue No. P2271) as a carrier DNA and 2.6 μL of LipofectAMINE (trade name, GIBCOBRL, Catalogue No.26300-61). To the mixture was added 170.2 μL of Opti-MEM (trade name). After washing with PBS (Phosphate Buffered Saline) and Opti-MEM (trade name), the mixture was added to the above cells. After culturing at 37° C. for 16 hours, the medium was replaced with DMEM-10% charcoal-[…] treated fetal calf serum (trade name, HyClone, Catalogue No. SH30068.03) containing a compound of this invention. After culturing at 37° C. for 24 hours, the cells were lysed and determined for its luciferase activity as usual.

In the next test the target is T2, human PPARγ receptor (Homo sapiens, UniProt P37231).
T2 construct: expressed in transfected cells; host or cells: CV-1 cells, pSG5-based Gal4-PPAR expression vector
T2 sequence (P37231 204-505): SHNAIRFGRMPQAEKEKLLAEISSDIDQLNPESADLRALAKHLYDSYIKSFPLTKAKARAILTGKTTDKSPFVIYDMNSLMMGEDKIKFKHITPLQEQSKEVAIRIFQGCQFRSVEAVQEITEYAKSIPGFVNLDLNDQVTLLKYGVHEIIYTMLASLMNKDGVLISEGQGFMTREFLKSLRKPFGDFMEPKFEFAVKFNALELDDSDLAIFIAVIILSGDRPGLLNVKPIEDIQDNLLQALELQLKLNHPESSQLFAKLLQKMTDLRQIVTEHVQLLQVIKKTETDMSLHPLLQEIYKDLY
The test is described as follows: Luciferase assay using human PPARγ receptor (Gal4 chimera, CV-1 cells). The note with it: 24 h, luciferase activity of Pioglitazone at 1 μM = 100, read-out: PPARγ agonist activity, Relative activity. In kind it is cell-based. As for the experimental part: as §1, §2, §3, §4, §5, §6
human PPARγ ligand binding region: Ser^176-Tyr^478
which correspond to Ser^204-Tyr^506 in the human PPARγ 1 receptor and PPARγ 2 receptor and thus have the same base sequence, from structural comparison for human PPAR receptors described in R. Mukherjee et al., J. Steroid Biochem. Molec. Biol., Vol. 51, p.157 (1994); M. E. Green et al. (Gene Expression., Vol.4, p.281 (1995). For monitoring an effect on basic transcription, was also prepared an expression vector having encoding only the DNA binding region of the Gal4 protein lacking the PPAR ligand binding region, the 1st to 147th amino acid sequence and a nuclear transition signal for SV-40T-antigen.
as §7, §8, §9

Molecules are shown by their SMILES. Structures can show the parent of a compound that is named as a salt.

Take `CCOC(=O)C(C)(Cc1cc2cc(OC)c(OC)cc2s1)Oc1ccc(C#N)cc1` (stereo not drawn) [Example 1]: at human PPARα receptor, the Emax at 0.1 µM stood at 0.2%, the Emax at 1 µM amounted to 0.2% and the Emax at 10 µM was 0.5%. On human PPARγ receptor, the Emax at 0.1 µM was 0.4%, the Emax at 1 µM stood at 3.2% and the Emax at 10 µM stood at 81.5%.
Regarding `COc1cc2cc(CC(C)(Oc3ccc(C#N)cc3)C(=O)O)sc2cc1OC` (stereo not drawn) [Example 2], on human PPARα receptor, the Emax at 0.1 µM came out at 0.1%, the Emax at 1 µM was determined as 0.1% and the Emax at 10 µM was 66.4%. On human PPARγ receptor, the Emax at 0.1 µM is 17.8%, the Emax at 1 µM came out at 81.9% and the Emax at 10 µM worked out at 78.7%.
For `COc1cc2cc(CC(C)(Oc3ccc(C(C)C)cc3)C(=O)O)sc2cc1OC` (stereo not drawn) [Example 3, 3-(5,6-dimethoxybenzothiophen-2-yl)-2-(4-isopropylphenoxy)-2-methylpropanoic Acid], at human PPARα receptor, the Emax at 0.1 µM was 13.2%, the Emax at 1 µM worked out at 116% and the Emax at 10 µM came to 111%. In addition, at human PPARγ receptor, the Emax at 0.1 µM turned out to be 9.5%, the Emax at 1 µM was 86.7% and the Emax at 10 µM was found to be 86.1%.
For `COc1cc2cc(CC(C)(Oc3ccc(C(=N)N4CCOCC4)cc3)C(=O)O)sc2cc1OC` (stereo not drawn) [Example 5, 3-(5,6-dimethoxybenzothiophen-2-yl) -2-methyl-2-(4-morpholinoamidinophenoxy)propanoic Acid Hydrochloride], at human PPARα receptor, the Emax at 0.1 µM amounted to 0.2%, the Emax at 1 µM turned out to be 0.3% and the Emax at 10 µM was 0.7%. Further, at human PPARγ receptor, the Emax at 0.1 µM is 0.3%, the Emax at 1 µM came out at 0.3% and the Emax at 10 µM was determined as 3.1%.
Consider `COc1cc2sc(/C=C(\Oc3ccc(C(C)C)cc3)C(=O)O)cc2c(Cl)c1OC` [Example 6, (Z)-3-(4-chloro-5,6-dimethoxybenzothiophen-2-yl)-2-(4-isopropylphenoxy)propenoic Acid], for which, on human PPARα receptor, the Emax at 0.1 µM came to 0.1%, the Emax at 1 µM came to 0.1% and the Emax at 10 µM was 0.1%. Also, at human PPARγ receptor, the Emax at 0.1 µM stood at 1.2%, the Emax at 1 µM worked out at 19% and the Emax at 10 µM amounted to 60.1%.
With `CCOC(=O)C(C)(Cc1cc2ccccc2s1)C(N)=O` (stereo not drawn) [Example 8, 2-(benzothiophen-2-yl)methyl-2-methylmalonamide Ethyl Ester], at human PPARα receptor, the Emax at 0.1 µM turned out to be 0.1%, the Emax at 1 µM worked out at 0.1% and the Emax at 10 µM is 0.2%. Moreover, at human PPARγ receptor, the Emax at 0.1 µM was found to be 0.3%, the Emax at 1 µM turned out to be 0.3% and the Emax at 10 µM worked out at 0.3%.
With `CC(Cc1cc2ccccc2s1)(C(=O)O)C(=O)NC1CCCCC1` (stereo not drawn) [Example 10, 2-(benzothiophen-2-yl)methyl-2-methylmalonic Acid N-cyclohexylamide], at human PPARα receptor, the Emax at 0.1 µM came out at 0.1%, the Emax at 1 µM worked out at 0.1% and the Emax at 10 µM turned out to be 20.7%. Further, at human PPARγ receptor, the Emax at 0.1 µM came out at 1.2%, the Emax at 1 µM is 2.1% and the Emax at 10 µM was found to be 31.2%.
Take `CC(Cc1cc2ccccc2s1)(C(=O)O)C(=O)N1CCOCC1` (stereo not drawn) [Example 11, 2-(benzothiophen-2-yl)methyl-2-methylmalonic Acid N-morpholinoamide]: on human PPARα receptor, the Emax at 0.1 µM was 0.1%, the Emax at 1 µM came out at 0.2% and the Emax at 10 µM stood at 0.3%. Moreover, on human PPARγ receptor, the Emax at 0.1 µM was 0.3%, the Emax at 1 µM is 0.3% and the Emax at 10 µM worked out at 0.3%.
For `CC(C)c1ccc(NC(=O)C(C)(Cc2cc3ccccc3s2)C(=O)O)cc1` (stereo not drawn) [Example 12, 2-(benzothiophen-2-yl)methyl-2-methylmalonic Acid N-(4-isopropylphenyl)amide], at human PPARα receptor, the Emax at 0.1 µM came to 0.2%, the Emax at 1 µM was 0.2% and the Emax at 10 µM stood at 0.2%. Further, at human PPARγ receptor, the Emax at 0.1 µM was found to be 0.3%, the Emax at 1 µM is 0.3% and the Emax at 10 µM was 0.5%.
As to `COc1cc2cc(CC(C)(C(=O)O)C(=O)NC3CCCCC3)sc2cc1OC` (stereo not drawn) [Example 14, 2-(5,6-dimethoxybenzothiophen-2-yl)methyl-2-methylmalonic Acid N-cyclohexylamide], on human PPARα receptor, the Emax at 0.1 µM turned out to be 0.2%, the Emax at 1 µM was 0.2% and the Emax at 10 µM was found to be 0.6%. Also, on human PPARγ receptor, the Emax at 0.1 µM was 0.3%, the Emax at 1 µM was 0.3% and the Emax at 10 µM amounted to 0.5%.
For `COc1cc2cc(CC(C)(Oc3ccc(C#N)cc3)C(N)=O)sc2cc1OC` (stereo not drawn) [Example 15], at human PPARα receptor, the Emax at 0.1 µM was 0.2%, the Emax at 1 µM stood at 0.2% and the Emax at 10 µM turned out to be 0.1%. Further, on human PPARγ receptor, the Emax at 0.1 µM was determined as 0.5%, the Emax at 1 µM came out at 0.4% and the Emax at 10 µM came to 1.1%.
Consider `CCCCNC(=O)C(C)(Cc1cc2cc(OC)c(OC)cc2s1)Oc1ccc(C#N)cc1` (stereo not drawn) [Example 16], for which, on human PPARα receptor, the Emax at 0.1 µM stood at 0.2%, the Emax at 1 µM is 0.2% and the Emax at 10 µM was 0.1%. On human PPARγ receptor, the Emax at 0.1 µM is 0.4%, the Emax at 1 µM amounted to 0.4% and the Emax at 10 µM is 0.3%.
